# According to patent US12534455B2, “Phthalazine derivatives as P2X3 inhibitors” (CHIESI FARMACEUTICI S.P.A., priority 2020, dated 2026):
# Where two headings read alike, the source gives them in different places.
# Columns and labels:
# h P2X3 = target: T1, h P2X3 (Homo sapiens, UniProt P56373); test: In vitro electrophysiology assay for P2X3 (Sophion Qube automated patch-clamp, α,β-MeATP agonist); assay type: cell-based; conditions: for h P2X3 (pIC50 range of activity): Table 3
# T1 sequence (P56373 1-397): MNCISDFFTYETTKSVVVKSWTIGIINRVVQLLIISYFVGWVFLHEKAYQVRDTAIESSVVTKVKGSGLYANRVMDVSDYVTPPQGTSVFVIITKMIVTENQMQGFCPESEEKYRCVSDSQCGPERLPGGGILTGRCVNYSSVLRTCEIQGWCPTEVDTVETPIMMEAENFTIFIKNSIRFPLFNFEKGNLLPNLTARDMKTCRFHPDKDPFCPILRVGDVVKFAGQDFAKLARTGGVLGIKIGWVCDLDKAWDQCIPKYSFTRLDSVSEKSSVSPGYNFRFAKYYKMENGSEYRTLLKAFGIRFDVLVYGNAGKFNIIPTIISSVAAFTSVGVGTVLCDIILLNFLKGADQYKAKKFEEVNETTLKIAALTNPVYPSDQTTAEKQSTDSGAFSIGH
# Method: Pharmacological Activity of the Compounds of the Invention. In Vitro Electrophysiology Assay for P2X3
# Cells expressing P2X3 receptors were grown according to standard practice and maintained at 37° C. in a 5% humidified CO2 atmosphere. The cells were seeded into T175 flask 2 days prior to the day of the assay and dissociated from the flasks using TrypLE when grown to confluence of 80-90%. The dissociated cells were resuspended in serum free media at a cell density of 3×10^6 cells/ml and loaded onto the Sophion Qube automated patch-clamp system. The extracellular assay buffer contained 145 mM NaCl, 4 mM KCl, 2 mM CaCl2, 1 mM MgCl2, 10 mM HEPES, and 10 mM glucose at pH 7.4. The intracellular assay solution contained 140 mM CsF, 10 mM NaCl, 10 mM EGTA, 10 mM HEPES at pH 7.2. Agonist stock solutions were prepared in H2O and diluted in bath solution prior to use. All antagonists were prepared as 10 mM stock solutions in DMSO and diluted in bath solution prior to use. All experiments were performed under the whole-cell patch clamp configuration at room temperature with 384 individual cells being voltage clamped at −60 mV simultaneously on the Sophion Qube instrument. Two baseline responses were established with the application of α,β-MeATP (800 nM), with the subsequent agonist applications being washed out using extracellular assay buffer containing 0.5 U/ml apyrase. Following the second agonist application, antagonist was incubated in the absence of α,β-MeATP for 10 minutes. After antagonist preincubation, 800 nM α,β-MeATP and antagonist were co-administered to determine the inhibitory effect of the antagonist. One concentration of an antagonist was assessed against a single cell, with different concentrations of the antagonist applied to other cells on the 384 recording substrate. The control P2X3 current amplitude was taken from the peak current amplitude from the second agonist response prior to preincubation with antagonist. The peak P2X3 current amplitude in the presence of antagonist was used to calculate the inhibitory effect at each concentration of the antagonist according to the following equation: Percentage inhibition of P2X3=(P2X3 control peak amplitude-P2X3 antagonist peak amplitude)/P2X3 control peak amplitude)*100
# Concentration-response curves were constructed from ten different concentrations with each concentration of antagonist tested on at least two individual cells. The concentration of the antagonist to inhibit P2X3 current by 50% (IC50) was determined by fitting the data with the following equation: Y=a+[(b−a)/(1+10^((log c−x)d)]
# Where ‘a’ is minimum response, ‘b’ is maximum response, ‘c’ is IC50 and ‘d’ is Hill slope.
# The results for individual compounds are provided below in Table 2 and are expressed as range of activity.
# h P2X2/3 = target: T2, h P2X2/3 (Homo sapiens, UniProt P56373+Q9UBL9); test: In vitro electrophysiology assay for P2X2/3 (same protocol, 10 μM ATP agonist); assay type: cell-based; conditions: Table 3; 10 μM ATP as agonist, mean current amplitude seven seconds after agonist; read-out: h P2X2/3 (pIC50 range of activity) (converted)
# T2 construct: same protocol as the P2X3 assay
# T2 sequence (P56373 1-397): T1 sequence (P56373 1-397)
# T2 sequence (Q9UBL9 1-471): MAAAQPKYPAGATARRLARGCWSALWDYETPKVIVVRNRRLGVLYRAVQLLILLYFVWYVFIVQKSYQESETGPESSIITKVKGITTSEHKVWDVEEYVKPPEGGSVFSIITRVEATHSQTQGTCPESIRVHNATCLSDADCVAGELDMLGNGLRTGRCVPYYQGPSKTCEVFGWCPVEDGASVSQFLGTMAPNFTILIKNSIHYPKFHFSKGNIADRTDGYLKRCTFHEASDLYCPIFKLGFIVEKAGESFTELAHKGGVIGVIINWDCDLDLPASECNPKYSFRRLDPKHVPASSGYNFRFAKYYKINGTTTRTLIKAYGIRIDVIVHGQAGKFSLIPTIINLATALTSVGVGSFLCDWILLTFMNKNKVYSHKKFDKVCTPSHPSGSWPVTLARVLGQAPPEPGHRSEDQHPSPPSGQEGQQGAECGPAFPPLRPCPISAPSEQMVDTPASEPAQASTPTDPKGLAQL
# Method: Cells expressing P2X3 receptors were grown according to standard practice and maintained at 37° C. in a 5% humidified CO2 atmosphere. The cells were seeded into T175 flask 2 days prior to the day of the assay and dissociated from the flasks using TrypLE when grown to confluence of 80-90%. The dissociated cells were resuspended in serum free media at a cell density of 3×10^6 cells/ml and loaded onto the Sophion Qube automated patch-clamp system. The extracellular assay buffer contained 145 mM NaCl, 4 mM KCl, 2 mM CaCl2, 1 mM MgCl2, 10 mM HEPES, and 10 mM glucose at pH 7.4. The intracellular assay solution contained 140 mM CsF, 10 mM NaCl, 10 mM EGTA, 10 mM HEPES at pH 7.2. Agonist stock solutions were prepared in H2O and diluted in bath solution prior to use. All antagonists were prepared as 10 mM stock solutions in DMSO and diluted in bath solution prior to use. […] One concentration of an antagonist was assessed against a single cell, with different concentrations of the antagonist applied to other cells on the 384 recording substrate. […]
# The same assay protocol was used for the P2X2/3 assay as the P2X3 assay with two modifications: 1) 10 μM ATP was used as the agonist; and 2) the mean current amplitude was measured seven seconds after the application of agonist.
# [1] = Table 2, whole-cell patch clamp, 800 nM α,β-MeATP, 10 min antagonist preincubation, read-out: h P2X3 (pIC50 range of activity) (converted)
# [2] = whole-cell patch clamp, 800 nM α,β-MeATP
Compound,IC50 (h P2X3; [1]),other results
"Cc1ccc(C(C)Nc2nnc(C3CC3)c3ccc(-c4ccn(C)n4)cc23)nn1 (racemic) [Example 16, 4-Cyclopropyl-7-(1-methyl-1H-pyrazol-3-yl)-N-(1-(6-methylpyridazin-3-yl)ethyl)phthalazin-1-amine]",316 to 3160 nM,–
"Cc1ccc(C(C)Nc2nnc(C3CCOCC3)c3ccc(-c4ccc(F)cn4)cc23)nn1 (single isomer, unassigned) [Example 11, 7-(5-Fluoropyridin-2-yl)-N-(1-(6-methylpyridazin-3-yl)ethyl)-4-(tetrahydro-2H-pyran-4-yl)phthalazin-1-amine]",316 to 3160 nM,–
"Cc1ccc(CNc2nccc3ccc(-c4ccc(F)cc4)cc23)nn1 [Comparative Example A, reference compound]",–,"IC50 (h P2X3; in vitro assay on P2X3 as described above, read-out: activity on receptor P2X3 expressed as pIC50 (converted)): > 3160 nM"
"Cc1cnc(-c2ccc3c(C4CCOCC4)nnc(NCc4ccc(C)nn4)c3c2)nc1 [Example 1, N-((6-Methylpyridazin-3-yl)methyl)-7-(5-methylpyrimidin-2-yl)-4-(tetrahydro-2H-pyran-4-yl)phthalazin-1-amine]",316 to 3160 nM,IC50 (h P2X2/3): 3160 to 31600 nM; h P2X3 (pIC50 range of activity) (h P2X3; [2]): ++ (++: 6.5<pIC50 h P2X3 or h P2X2/3>5.5)
"Fc1ccc(-c2ccc3cnnc(NCC4CC4)c3c2)cc1 [Example 2, N-(Cyclopropylmethyl)-7-(4-fluorophenyl)phthalazin-1-amine]",316 to 3160 nM,–
"Cc1ccc(CNc2nncc3ccc(-c4ccc(F)cc4)cc23)nn1 [Example 3, 7-(4-Fluorophenyl)-N-((6-methylpyridazin-3-yl)methyl)phthalazin-1-amine]",< 316 nM,–
"C[C@@H](Nc1nnc(C2CC2)c2ccc(-c3ccc(F)cc3)cc12)c1cnc(C(F)(F)F)nc1 [Example 4, (R)-4-Cyclopropyl-7-(4-fluorophenyl)-N-(1-(2-(trifluoromethyl)pyrimidin-5-yl)ethyl)phthalazin-1-amine]",316 to 3160 nM,–
"Cc1ccc([C@@H](C)Nc2nnc(C3CC3)c3ccc(-c4ccc(F)cc4)cc23)nn1 [Example 5, (R)-4-Cyclopropyl-7-(4-fluorophenyl)-N-(1-(6-methylpyridazin-3-yl)ethyl)phthalazin-1-amine]",< 316 nM,IC50 (h P2X2/3): 316 to 3160 nM; h P2X3 (pIC50 range of activity) (h P2X3; [2]): +++ (+++: pIC50 h P2X3 or h P2X2/3>6.5)
"C[C@@H](Nc1nnc(C2CCOCC2)c2ccc(-c3ccc(F)cc3)cc12)c1cnc(C(F)(F)F)nc1 [Example 6, (R)-7-(4-Fluorophenyl)-4-(tetrahydro-2H-pyran-4-yl)-N-(1-(2-(trifluoromethyl)pyrimidin-5-yl)ethyl)phthalazin-1-amine]",316 to 3160 nM,–
"Cc1ccc([C@@H](C)Nc2nnc(C3CCOCC3)c3ccc(-c4ccc(F)cc4)cc23)nn1 [Example 7, (R)-7-(4-Fluorophenyl)-N-(1-(6-methylpyridazin-3-yl)ethyl)-4-(tetrahydro-2H-pyran-4-yl)phthalazin-1-amine]",< 316 nM,–
"Cc1ccc(CNc2nnc(C3CCOCC3)c3ccc(-c4ccc(F)cn4)cc23)nn1 [Example 9, 7-(5-Fluoropyridin-2-yl)-N-((6-methylpyridazin-3-yl)methyl)-4-(tetrahydro-2H-pyran-4-yl)phthalazin-1-amine]",316 to 3160 nM,–
"Cc1ccc(CNc2nnc(CC3CCOCC3)c3ccc(-c4ccc(F)cn4)cc23)nn1 [Example 10, 7-(5-Fluoropyridin-2-yl)-N-((6-methylpyridazin-3-yl)methyl)-4-((tetrahydro-2H-pyran-4-yl)methyl)phthalazin-1-amine]",316 to 3160 nM,–
"Cc1ccc(CNc2nncc3ccc(-c4ncc(C)s4)cc23)nn1 [Example 13, N-[(6-Methylpyridazin-3-yl)methyl]-7-(5-methylthiazol-2-yl)phthalazin-1-amine]",< 316 nM,–
"Cc1cnc(-c2ccc3c(CC4CCOCC4)nnc(NCc4nc(C(F)(F)F)no4)c3c2)s1 [Example 14, 7-(5-Methylthiazol-2-yl)-4-((tetrahydro-2H-pyran-4-yl)methyl)-N-((3-(trifluoromethyl)-1,2,4-oxadiazol-5-yl)methyl)phthalazin-1-amine]",316 to 3160 nM,–
"Cc1ccc(CNc2nnc(CC3CCOCC3)c3ccc(-c4ncc(C)s4)cc23)nn1 [Example 15, N-((6-Methylpyridazin-3-yl)methyl)-7-(5-methylthiazol-2-yl)-4-((tetrahydro-2H-pyran-4-yl)methyl)phthalazin-1-amine]",316 to 3160 nM,–
"Cc1ccc(C(C)Nc2nnc(C3CCOCC3)c3ccc(-c4ccn(C)n4)cc23)nn1 (stereo not drawn) [Example 17, 7-(1-Methylpyrazol-3-yl)-N-[1-(6-methylpyridazin-3-yl)ethyl]-4-tetrahydropyran-4-yl-phthalazin-1-amine]",316 to 3160 nM,–
"Cc1ccc(C(C)Nc2nnc(C3CC3)c3ccc(-c4ccn(C)n4)cc23)nn1 (stereo not drawn) [Example 19, 4-Cyclopropyl-7-(1-methyl-1H-pyrazol-3-yl)-N-(1-(6-methylpyridazin-3-yl)ethyl)phthalazin-1-amine]",316 to 3160 nM,–
